Reference: PMC7391456, “Targeting fibroblast activation protein (FAP): next generation PET radiotracers using squaramide coupled bifunctional DOTA and DATA^5m chelators” (EJNMMI Radiopharmacy and Chemistry, 2020)
Each block holds one compound with its values, some of them ahead of it.

Key:
FAP = system: FAP; parameters: method as in originally published value; details: different FAP substrate (Ala-Pro-pNA); ref originally published value; cited from earlier work
human FAP = target: T1, human FAP (Homo sapiens, UniProt Q12884); experiment: FAP inhibition assay (IC50, Z-Gly-Pro-AMC substrate); assay type: biochemical
T1 construct: the human secretion signal was replaced with the HoneyBee mellitin secretion signal; HoneyBee mellitin secretion signal (replaces the native signal-anchor) (N); C-terminal tag of the BaculoDirect C-term kit (C); made in house; host or cells: Sf9 insect cells (baculovirus); purified from the supernatant
T1 sequence (Q12884 26-760 limits assumed): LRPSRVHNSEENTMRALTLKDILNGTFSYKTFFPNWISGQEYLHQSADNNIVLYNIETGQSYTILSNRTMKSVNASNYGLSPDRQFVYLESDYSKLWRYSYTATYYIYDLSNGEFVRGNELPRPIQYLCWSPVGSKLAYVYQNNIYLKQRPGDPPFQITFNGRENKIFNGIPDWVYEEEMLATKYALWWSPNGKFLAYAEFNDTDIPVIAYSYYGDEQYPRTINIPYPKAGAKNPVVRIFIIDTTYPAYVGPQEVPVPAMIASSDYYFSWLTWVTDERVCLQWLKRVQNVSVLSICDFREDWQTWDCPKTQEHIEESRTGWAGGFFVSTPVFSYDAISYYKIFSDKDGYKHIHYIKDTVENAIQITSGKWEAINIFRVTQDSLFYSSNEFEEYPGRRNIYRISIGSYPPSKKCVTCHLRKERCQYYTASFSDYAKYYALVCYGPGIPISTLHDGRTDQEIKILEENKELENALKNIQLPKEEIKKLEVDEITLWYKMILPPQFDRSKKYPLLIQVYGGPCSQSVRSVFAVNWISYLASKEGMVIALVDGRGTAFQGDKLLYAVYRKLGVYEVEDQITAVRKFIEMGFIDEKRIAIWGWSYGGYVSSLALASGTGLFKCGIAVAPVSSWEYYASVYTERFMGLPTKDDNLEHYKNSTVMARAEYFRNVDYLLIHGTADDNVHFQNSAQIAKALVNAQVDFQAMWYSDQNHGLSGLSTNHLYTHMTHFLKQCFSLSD
Excerpt: (§1) Enzymes: A gateway-entry clone for human FAP was purchased from Dharmacon (Accession number DQ891423) and the human secretion signal was replaced with the HoneyBee mellitin secretion signal. For transfection and expression of FAP in Sf9 insect cells, the C-terminal BaculoDirect kit from LifeTechnologies was used. The enzyme was purified from the supernatant of the insect cells using immobilized Ni-chelating chromatography (GE healthcare, Diegem, Belgium), followed by anion-exchange chromatography using a 1 mL HiTrap Q (GE healthcare, Diegem, Belgium). Human recombinant PREP was expressed in BL21(DE3) cells and purified using immobilized Co-chelating chromatography (GE healthcare) followed by anion-exchange chromatography on a 1 ml Mono Q column (GE healthcare).
(§2) Eight concentrations of inhibitors were tested. The final DMSO concentration was kept constant during the experiment to exclude any solvent effects. Inhibitors were pre-incubated with the enzyme for 15 min at 37 °C, afterwards the substrate was added and the velocities of AMC release were measured kinetically at λex = 380 nm, λem = 465 nm for at least 10 min at 37 °C. The Infinite 200 (Tecan Group Ltd.) micro-titer plate reader and the Magellan software were used for measurement and data processing respectively.
(§3) The data were fitted using a non-linear fit model in GraFit 7 software, according to the following equation: y=range/1+x/IC50^s where y is the value of the residual enzymatic activity compared to a non-inhibited sample, x is the final inhibitor concentration in the assay, s is the slope factor and the IC50 is the half maximal inhibitory concentration.

Human recombinant PREP = target: T2, Human recombinant PREP (Homo sapiens, UniProt P48147); experiment: PREP inhibition assay (IC50, N-succinyl-Gly-Pro-AMC substrate); assay type: biochemical; details: N-succinyl-Gly-Pro-AMC 250 μM, pH 7.4, 15 min pre-incubation at 37 °C
T2 sequence (P48147 1-710): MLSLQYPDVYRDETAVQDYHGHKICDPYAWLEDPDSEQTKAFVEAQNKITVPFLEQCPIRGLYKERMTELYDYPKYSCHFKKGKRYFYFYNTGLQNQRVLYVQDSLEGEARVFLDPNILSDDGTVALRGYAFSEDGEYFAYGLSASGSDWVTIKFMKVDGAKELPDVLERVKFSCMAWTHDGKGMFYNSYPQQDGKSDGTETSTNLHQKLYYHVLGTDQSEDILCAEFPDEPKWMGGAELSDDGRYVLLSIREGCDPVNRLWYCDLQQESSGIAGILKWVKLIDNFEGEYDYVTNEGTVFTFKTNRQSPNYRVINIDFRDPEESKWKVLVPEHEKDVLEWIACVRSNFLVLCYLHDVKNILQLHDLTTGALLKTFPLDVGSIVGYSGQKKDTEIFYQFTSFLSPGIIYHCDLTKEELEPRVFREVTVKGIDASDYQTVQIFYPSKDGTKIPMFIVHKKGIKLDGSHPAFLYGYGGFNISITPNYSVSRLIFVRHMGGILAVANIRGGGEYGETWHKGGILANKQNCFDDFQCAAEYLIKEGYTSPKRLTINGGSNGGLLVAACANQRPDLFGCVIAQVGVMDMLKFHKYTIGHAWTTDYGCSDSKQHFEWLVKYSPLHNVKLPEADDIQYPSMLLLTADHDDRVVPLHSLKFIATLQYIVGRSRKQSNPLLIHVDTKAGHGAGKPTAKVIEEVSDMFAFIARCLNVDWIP
Excerpt: as §1
as §2, with “concentration is” for “concentration was”, “any” for “any solvent”, “data processing,” for “data processing”
as §3

[1] = Stability studies of gallium-68 complexes in media (EtOH, human serum, saline, PBS); assay type: physicochemical; details: different media (summary statement)
Description: Gallium-68 stability studies against transmetallation (Fe, Cu, Ca, Mg), transchelation (EDTA, DTPA) as well as in HS, EtOH and saline (0.9% isotone NaCl-solution) were performed. 50 μl of the [^68Ga]Ga-DOTA.SA.FAPi labeling solution with > 95% radiochemical purity were added to 1 mL of the respective media. The measured time points for gallium-68 were 15, 30, 45, 60, 90, 120 min. HS (human male AB plasma, USA origin) was bought from Sigma Aldrich, PBS was purchased from Sigma Aldrich and 0.9% saline from B. Braun Melsungen AG (Melsungen, Germany).

HT-1080 FAP = system: HT-1080 FAP; parameters: method as in Lindner et al. [2018]; details: HT-1080 FAP tumor model, read from graphs; ref Lindner et al. [2018]; cited from earlier work
PANC-1 = system: PANC-1; parameters: method as in Watabe et al. [2020]; details: read from graphs, ref Watabe et al. [2020], cited from earlier work
MIA-PaCa-2 = system: MIA-PaCa-2; parameters: method as in Watabe et al. [2020]; details: MIA-PaCa-2 tumor model, read from graphs; ref Watabe et al. [2020]; cited from earlier work
[2] = PANC-1 / MIA-PaCa-2, one value given

IC50 (human FAP; Z-Gly-Pro-AMC 50 μM, pH 8, 15 min pre-incubation at 37 °C): 0.9 ± 0.1 nM
Selectivity index (IC50 PREP / IC50 FAP) (human FAP; ratio of the IC50 values for FAP and PREP): 6000
IC50 (Human recombinant PREP): 5400 ± 300 nM
Stability in different media, intact conjugate [1]: more than 95%
Compound: N#C[C@@H]1CC(F)(F)CN1C(=O)CNC(=O)c1ccnc2ccc(OCCCCNc3c(NCCNC(=O)CN4CCN(CC(=O)O)CCN(CC(=O)O)CCN(CC(=O)O)CC4)c(=O)c3=O)cc12 [DOTA.SA.FAPi, (S)-2,2′,2″-(10-(2-((2-((2-((4-((4-((2-(2-cyano-4,4-difluoropyrrolidin-1-yl)-2-oxo-ethyl)carbamoyl)quinolin-6-yl)oxy)butyl)amino)-3,4-dioxocyclobut-1-en-1-yl)amino)ethyl)amino)-2-oxoethyl)-1,4,7,10-tetraazacyclododecane-1,4,7-triyl) triacetic acid]

Compound: N#C[C@@H]1CC(F)(F)CN1C(=O)CNC(=O)c1ccnc2ccc(OCCCN3CCN(C(=O)CN4CCN(CC(=O)[O-])CCN(CC(=O)[O-])CCN(CC(=O)[O-])CC4)CC3)cc12.[68Ga+3] [[^68Ga]Ga-FAPI-04]
SUVmean(60 min p.i.) Heart (HT-1080 FAP): 0.16
SUVmean(60 min p.i.) Kidney (HT-1080 FAP): 0.33
SUVmean(60 min p.i.) Liver (HT-1080 FAP): 0.11
SUVmean(60 min p.i.) Muscle (HT-1080 FAP): 0.06
SUVmean(60 min p.i.) Tumor (HT-1080 FAP): 0.45
SUVmean(60 min p.i.) Heart (PANC-1; [2]): 0.17
SUVmean(60 min p.i.) Kidney (PANC-1; [2]): 0.36
SUVmean(60 min p.i.) Liver (PANC-1; [2]): 0.67
SUVmean(60 min p.i.) Muscle (PANC-1; [2]): 0.03
SUVmean(60 min p.i.) Tumor (PANC-1; PANC-1 tumor model): 0.14
SUVmean(60 min p.i.) Tumor (MIA-PaCa-2): 0.11
